Values belong to the compound of their own block, whether it stands above or below them. Calls of active or inactive are those of the source. The calls are words filed in the database; no cut-off is given here.
Experiments:
[1] = system: A549; assay: Cytotoxicity against human A549 cells assessed as reduction in cell viability by CCK8 assay; type: functional, cell-based
[2] = Cytotoxicity against human MCF-10A cells assessed as reduction in cell viability by CCK8 assay; type: toxicity, cell-based
[3] = system: HCC1806; assay: Cytotoxicity against human HCC1806 cells assessed as reduction in cell viability by CCK8 assay; type: functional, cell-based
[4] = system: HeLa; assay: Cytotoxicity against human HeLa cells assessed as reduction in cell viability by CCK8 assay; type: functional, cell-based
[5] = system: MDA-MB-231; assay: Cytotoxicity against human MDA-MB-231 cells assessed as reduction in cell viability by CCK8 assay; type: functional, cell-based
[6] = system: Quadruplex DNA; assay: Stabilization of c-Myc G4 quadruplex DNA (unknown origin) assessed as temperature at which 50% protein unfold by circular dichroism melting assay; type: nucleic-acid assay
[7] = system: KYSE-30; assay: Cytotoxicity against human KYSE-30 cells assessed as reduction in cell viability by CCK8 assay; type: functional, cell-based
[8] = system: MDA-MB-231; assay: Antitumor activity against human MDA-MB-231 cells xenografted in BALB/c nude mouse assessed as reduction in tumor weight at 2 mg/kg, ip administered every other day for 20 days and measured every 4 days; type: functional, organism-based; details: time 20.0 day
[9] = Toxicity in BALB/c mouse xenografted with human MDA-MB-231 cells assessed as effect on body weight at 2 mg/kg, ip administered every other day for 20 days and measured every 4 days; type: organism-based; details: in vivo, 480 h, time 20 day
[10] = system: Quadruplex DNA; assay: Stabilization of c-Myc G4 quadruplex DNA (unknown origin) assessed as temperature at 50% protein unfold by circular dichroism melting assay; type: nucleic-acid assay

SMILES: CN1CCN(c2ccc(-c3nc(-c4ccc(-c5ccccc5C(F)(F)F)cc4)[nH]c3-c3ccc(N4CCN(C)CC4)cc3)cc2)CC1
- IC50 [1]: 1.7 µM
- IC50 [2]: > 20 µM
- IC50 [3]: 1.9 µM
- IC50 [4]: 3.55 µM
- IC50 [5]: 2.43 µM
- T [6]: 29.6 °C
- IC50 [7]: 2.21 µM

SMILES: COc1cccc2c1C(=O)c1c(O)c3c(c(O)c1C2=O)C[C@@](O)(C(=O)CO)C[C@@H]3O[C@H]1C[C@H](N)[C@H](O)[C@H](C)O1 [DOXORUBICIN]
- Activity [8]: Active
- Activity [9]: Toxic

SMILES: CN1CCN(c2ccc(-c3nc(-c4ccc(-c5ccccn5)cc4)[nH]c3-c3ccc(N4CCN(C)CC4)cc3)cc2)CC1
- IC50 [1]: 1.94 µM
- IC50 [2]: 7.75 µM
- IC50 [3]: 7.09 µM
- IC50 [4]: 12.3 µM
- IC50 [5]: 2.19 µM
- T [6]: 34.4 °C
- IC50 [7]: 2.79 µM

Second part, led by results:

- T [6]: 36.2 °C
SMILES: COc1ccc(-c2ccc(-c3nc(-c4ccc(N5CCN(C)CC5)cc4)c(-c4ccc(N5CCN(C)CC5)cc4)[nH]3)cc2)cc1
- IC50 [1]: 2.42 µM
- IC50 [2]: 9.69 µM
- IC50 [3]: 3.74 µM
- IC50 [4]: 5.49 µM
- IC50 [5]: 2.69 µM
- IC50 [7]: 2.5 µM

- T [10]: 28.4 °C
SMILES: CN1CCN(c2ccc(-c3nc(-c4ccc(C(F)(F)F)cc4)[nH]c3-c3ccc(N4CCN(C)CC4)cc3)cc2)CC1

- T [6]: 36.8 °C
SMILES: CN1CCN(c2ccc(-c3nc(-c4ccc(-c5ccccc5)cc4)[nH]c3-c3ccc(N4CCN(C)CC4)cc3)cc2)CC1
- IC50 [1]: 2.51 µM
- IC50 [2]: 9.23 µM
- IC50 [3]: 5.68 µM
- IC50 [4]: 8.92 µM
- IC50 [5]: 3.69 µM
- IC50 [7]: 3.86 µM

- T [6]: 23.5 °C
SMILES: COc1ccccc1-c1ccc(-c2nc(-c3ccc(N4CCN(C)CC4)cc3)c(-c3ccc(N4CCN(C)CC4)cc3)[nH]2)cc1
- IC50 [1]: 7.51 µM
- IC50 [2]: > 20 µM
- IC50 [3]: > 20 µM
- IC50 [4]: > 20 µM
- IC50 [5]: 8.19 µM
- IC50 [7]: 8.64 µM

Source: ChEMBL document CHEMBL5380876, “Non-fused imidazole-biphenyl analogs repress triple-negative breast cancer growth by mainly stabilizing the c-MYC G-quadruplex via a multi-site binding mode” (Bioorg Med Chem, 2023)
